These results are taken from patent US10556905B2, “Processes for preparing a diazabicyclooctane compound” (priority 2012, dated 2020).

In brackets after ≈: the same amount, converted by molar mass. Where two headings read alike, the source gives them in different places. A value given as a limit tells only on which side of the number the result lay.

Assay [1] relates to sensitive tuberculosis (H37Rv). Briefly: Anti-tubercle bacillus activity, liquid medium dilution MIC. In kind it is cell-based. To be noted: for MIC: Mycobacterium tuberculosis, 168 h, alone, 7 days at 37° C., read-out: antibacterial activity (MIC) of β-lactam agent alone.
In another assay the target is T1, OXA-2 (Escherichia coli, UniProt P0A1V9).
T1 construct: AmpC, TEM-1, KPC-2 or OXA-2 domain excluding signal peptide was amplified with PCR; made in house; host or cells: Escherichia coli BL21 (DE3), pET-28b(+)
T1 sequence (P0A1V9 22-275): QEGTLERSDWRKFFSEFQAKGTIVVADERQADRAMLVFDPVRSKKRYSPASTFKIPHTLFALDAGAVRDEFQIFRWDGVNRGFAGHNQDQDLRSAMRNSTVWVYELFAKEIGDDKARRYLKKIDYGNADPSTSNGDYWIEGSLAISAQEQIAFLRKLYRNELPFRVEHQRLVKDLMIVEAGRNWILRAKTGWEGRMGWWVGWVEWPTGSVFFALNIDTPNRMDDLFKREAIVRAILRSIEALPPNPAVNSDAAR
Briefly: biochemical. More on the design: species or system P. aeruginosa.

A further assay deals with T2, TEM-1 (Escherichia coli, UniProt P62593).
T2 construct: AmpC, TEM-1, KPC-2 or OXA-2 domain excluding signal peptide was amplified with PCR; made in house; host or cells: Escherichia coli BL21 (DE3), pET-28b(+)
T2 sequence (P62593 24-286 limits assumed): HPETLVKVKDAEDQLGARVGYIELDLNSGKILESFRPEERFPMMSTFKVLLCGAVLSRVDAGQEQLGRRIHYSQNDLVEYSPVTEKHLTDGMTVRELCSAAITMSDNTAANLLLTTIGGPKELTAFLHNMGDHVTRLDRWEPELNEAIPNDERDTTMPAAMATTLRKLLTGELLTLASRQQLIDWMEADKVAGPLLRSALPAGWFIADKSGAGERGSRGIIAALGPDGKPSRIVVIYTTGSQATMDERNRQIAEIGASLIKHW
The experiment in a line: β-Lactamase inhibitory activity (nitrocefin hydrolysis), TEM-1. In kind it is biochemical. The note with it: TEM-1 0.1 nM, 100 μM nitrocefin, pre-incubation 30° C. 10 minutes. In short, it runs like this: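 Recombinant TEM-1 (signal peptide removed), expressed in E. coli BL21(DE3), hydrolysing 100 μM nitrocefin (final) in 50 mM phosphate pH 7.0 with 2.5% DMSO and 10 μg/mL BSA. Incubated 20 min at 30° C; A492 read. Potency given as bands A (<0.1 μM) to E (≥10 μM).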

A further assay has as its target T3, AmpC (Pseudomonas aeruginosa, UniProt P24735).
T3 construct: AmpC, TEM-1, KPC-2 or OXA-2 domain excluding signal peptide was amplified with PCR; made in house; host or cells: Escherichia coli BL21 (DE3), pET-28b(+)
The experiment in a line: biochemical.

A further assay concerns the target T4, KPC-2 (Klebsiella pneumoniae, UniProt Q9F663).
T4 construct: AmpC, TEM-1, KPC-2 or OXA-2 domain excluding signal peptide was amplified with PCR; made in house; host or cells: Escherichia coli BL21 (DE3), pET-28b(+)
Briefly: β-Lactamase inhibitory activity (nitrocefin hydrolysis), KPC-2. The class given is biochemical. The note with it: KPC-2 0.5 nM, 100 μM nitrocefin, pre-incubation 30° C. 10 minutes.

Another assay deals with E. coli MSC19503. The experiment in a line: microbe, parasite or virus in culture. In kind it is cell-based. To be noted: Escherichia coli, alone, CTX-M-15 (ESBL) and OXA-1 producing E. coli, agar plate dilution, read-out: antibacterial activity (MIC) of PIPC alone.
For assay [2], the system named is K. pneumoniae ATCCBAA-1705. Briefly: microbe, parasite or virus in culture. The note with it: Klebsiella pneumoniae, ATCCBAA1705, read-out: antibacterial activity (MIC) of PIPC alone.
Assay [3] deals with P. aeruginosa ATCCBAA-47CR. The experiment in a line: microbe, parasite or virus in culture. In kind it is cell-based. To be noted: Pseudomonas aeruginosa, ATCCBAA47CR; alone; AmpC constitutively-expressing P. aeruginosa; agar plate dilution; read-out: antibacterial activity (MIC) of PIPC alone.

T3 sequence (P24735 27-397): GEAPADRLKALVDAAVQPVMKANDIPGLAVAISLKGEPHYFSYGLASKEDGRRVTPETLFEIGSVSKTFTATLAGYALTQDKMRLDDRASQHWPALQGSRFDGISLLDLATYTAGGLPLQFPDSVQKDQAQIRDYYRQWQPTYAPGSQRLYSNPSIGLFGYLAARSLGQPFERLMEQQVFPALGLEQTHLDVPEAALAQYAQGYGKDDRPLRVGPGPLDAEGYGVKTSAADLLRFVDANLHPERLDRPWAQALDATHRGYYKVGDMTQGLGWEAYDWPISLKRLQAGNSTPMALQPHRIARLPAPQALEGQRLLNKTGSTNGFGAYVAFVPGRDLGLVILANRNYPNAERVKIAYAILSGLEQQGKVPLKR
T4 sequence (Q9F663 25-293, looked up): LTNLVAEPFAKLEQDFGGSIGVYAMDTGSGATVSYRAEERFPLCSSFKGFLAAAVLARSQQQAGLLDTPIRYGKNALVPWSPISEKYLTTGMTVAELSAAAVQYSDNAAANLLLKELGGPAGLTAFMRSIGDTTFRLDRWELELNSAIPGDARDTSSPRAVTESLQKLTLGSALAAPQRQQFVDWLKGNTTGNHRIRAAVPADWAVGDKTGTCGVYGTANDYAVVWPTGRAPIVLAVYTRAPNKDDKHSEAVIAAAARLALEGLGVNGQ

Turning to `CC1(C)S[C@@H]2[C@H](NC(=O)[C@H](N)c3ccccc3)C(=O)N2[C@H]1C(=O)O` [ABPC, ampicillin, reference compound], the MIC in assay [1] was determined as 16 µg/mL (≈ 45.8 µM).

Consider `CC1(C)S[C@@H]2[C@H](NC(=O)[C@H](N)c3ccc(O)cc3)C(=O)N2[C@H]1C(=O)O` [AMPC, amoxicillin, reference compound], for which the MIC in assay [1] was determined as 16 µg/mL (≈ 43.8 µM).

Consider `C[C@@H](O)[C@H]1C(=O)N2C(C(=O)[O-])=C(SC3Cn4cnc[n+]4C3)[C@H](C)[C@H]12` (stereo partly drawn) [BIPM, biapenem, reference compound], for which the MIC in assay [1] was 1 µg/mL (≈ 2.85 µM).

As for `NCCONC(=O)[C@@H]1CC[C@@H]2CN1C(=O)N2OS(=O)(=O)O` [Example 59, (2S,5R)—N-(2-Aminoethoxy)-7-oxo-6-(sulfooxy)-1,6-diazabicyclo[3.2.1]octane-2-carboxamide], the IC50 is 1000 to 3000 nM at OXA-2 (OXA-2 2 nM, 100 μM nitrocefin, pre-incubation 30° C. 10 minutes, read-out: β-Lactamase inhibitory activity OXA-2 (IC50)); under 100 nM on TEM-1; 100 to 1000 nM against AmpC; 100 to 1000 nM on KPC-2. Moreover, the “antibacterial activity (MIC) of ABPC in combinatorial use” value in assay [1] (ABPC + 4 μg/mL compound) came out at 2 µg/mL. In addition, in assay [1] (AMPC + 4 μg/mL compound), the “antibacterial activity (MIC) of AMPC in combinatorial use” value was found to be 2 µg/mL. The “antibacterial activity (MIC) of BIPM in combinatorial use” value in assay [1] (BIPM + 4 μg/mL compound) came out at 1 µg/mL. The “antibacterial activity (MIC) of MEPM in combinatorial use” value in assay [1] (MEPM + 4 μg/mL compound) came out at 0.5 µg/mL. Further, the “antibacterial activity (MIC) of TBPM in combinatorial use” value in assay [1] (TBPM + 4 μg/mL compound) was 0.25 µg/mL.

As to `CS(=O)(=O)CCONC(=O)[C@@H]1CC[C@@H]2CN1C(=O)N2OS(=O)(=O)O` [Example 97, Sodium (2S,5R)—N-[2-(methylsulfonyl)ethoxy]-7-oxo-6-(sulfooxy)-1,6-diazabicyclo[3.2.1]octane-2-carboxamide], the IC50 is 100 to 1000 nM against OXA-2, under 100 nM against TEM-1, under 100 nM against AmpC and under 100 nM at KPC-2.

In the case of `C[C@@H](O)[C@H]1C(=O)N2C(C(=O)O)=C(S[C@@H]3CN[C@H](C(=O)N(C)C)C3)[C@H](C)[C@H]12` [MEPM, meropenem, reference compound], the MIC in assay [1] is 1 µg/mL (≈ 2.61 µM).

For the molecule `CCN1CCN(C(=O)N[C@@H](C(=O)N[C@@H]2C(=O)N3[C@@H]2SC(C)(C)[C@@H]3C(=O)O)c2ccccc2)C(=O)C1=O` [PIPC, piperacillin], the MIC with E. coli MSC19503 was over 128 µg/mL; in assay [2] it was over 128 µg/mL; in assay [3], 64 µg/mL (≈ 124 µM).

In the case of `C[C@@H](O)[C@H]1C(=O)N2C(C(=O)O)=C(SC3CN(C4=NCCS4)C3)[C@H](C)[C@H]12` [TBPM, tebipenem, reference compound], the MIC in assay [1] was 0.5 µg/mL (≈ 1.3 µM).

In general, IC50 refers to the concentration needed to halve the response being measured.
